Patent publication US11685746B2, “Heteroaryl compounds for treating Huntington's disease” (PTC THERAPEUTICS, INC., priority 2018, dated 2023)
pIC50: −log10 of the molar value.

System: Endogenous Huntingtin Protein
Assay: Endogenous Huntingtin Protein Assay (MSD plates, MW1 or MAB2166 capture antibody)
Type: cell-based
Details: Table 1
Method in brief: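 Endogenous huntingtin was captured overnight at 4° C on wells coated with 1 μg/mL MW1 (polyglutamine-specific) or MAB2166. Detection used rabbit #5656S and then goat anti-rabbit SULFO-TAG, both at 0.25 μg/mL and 1 h at room temperature. Plates were imaged on the MSD system in read buffer T.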

Structure (SMILES)	pIC50
C[C@@H]1C[C@@H](Oc2nc3sc(-c4ccc(-c5cn[nH]c5)c5cn[nH]c45)nc3s2)CCN1 [Compound 78, 7-(5-{[(2R,4S)-2-methylpiperidin-4-yl]oxy}[1,3]thiazolo[5,4-d][1,3]thiazol-2-yl)-4-(1H-pyrazol-4-yl)-1H-indazole]	≥ 7.00
CN(c1nc2sc(-c3ncc(-c4cn[nH]c4)nn3)nc2s1)[C@H]1C[C@]2(C)CC[C@](C)(C1)N2 [Compound 79, N-[(1R,3s,5S)-1,5-dimethyl-8-azabicyclo[3.2.1]octan-3-yl]-N-methyl-5-[6-(1H-pyrazol-4-yl)-1,2,4-triazin-3-yl][1,3]thiazolo[5,4-d][1,3]thiazol-2-amine]	≥ 7.00
C[C@H]1C[C@H](N(C)c2nc3sc(-c4ncc(-n5ccnc5)c5cc[nH]c45)nc3s2)CCN1 [Compound 80, 5-[4-(1H-imidazol-1-yl)-1H-pyrrolo[2,3-c]pyridin-7-yl]-N-methyl-H-[(2S,4R)-2-methylpiperidin-4-yl][1,3]thiazolo[5,4-d][1,3]thiazol-2-amine]	≥ 7.00
C[C@H]1C[C@H](Oc2nc3sc(-c4ncc(-c5nnn(C)n5)c5cc[nH]c45)nc3s2)CCN1 [Compound 81, 7-(5-{[(2S,4R)-2-methylpiperidin-4-yl]oxy}[1,3]thiazolo[5,4-d][1,3]thiazol-2-yl)-4-(2-methyl-2H-tetrazol-5-yl)-1H-pyrrolo[2,3-c]pyridine]	≥ 7.00
C[C@@H]1C[C@@H](Oc2nc3sc(-c4ccc(-c5cn[nH]c5)c5cc[nH]c45)nc3s2)CCN1 [Compound 82, 7-(5-{[(2R,4S)-2-methylpiperidin-4-yl]oxy}[1,3]thiazolo[5,4-d][1,3]thiazol-2-yl)-4-(1H-pyrazol-4-yl)-1H-indole]	≥ 7.00
C[C@@H]1C[C@@H](Oc2nc3sc(-c4ncc(-c5cn[nH]c5)c5nc[nH]c45)nc3s2)CCN1 [Compound 83, 4-(5-{[(2R,4S)-2-methylpiperidin-4-yl]oxy}[1,3]thiazolo[5,4-d][1,3]thiazol-2-yl)-7-(1H-pyrazol-4-yl)-3H-imidazo[4,5-c]pyridine]	≥ 7.00
C[C@H]1C[C@H](Oc2nc3sc(-c4ncc(-c5cn[nH]c5)c5cc[nH]c45)nc3s2)CCN1C [Compound 84, 7-(5-{[(2S,4R)-1,2-dimethylpiperidin-4-yl]oxy}[1,3]thiazolo[5,4-d][1,3]thiazol-2-yl)-4-(1H-pyrazol-4-yl)-1H-pyrrolo[2,3-c]pyridine]	≥ 7.00
C[C@@H]1C[C@@H](N(C)c2nc3sc(-c4ncc(-c5cn[nH]c5)c5cc[nH]c45)nc3s2)CCN1 [Compound 85, N-methyl-N-[(2R,4S)-2-methylpiperidin-4-yl]-5-[4-(1H-pyrazol-4-yl)-1H-pyrrolo[2,3-c]pyridin-7-yl][1,3]thiazolo[5,4-d][1,3]thiazol-2-amine]	≥ 7.00
Cc1[nH]ncc1-c1cnc(-c2nc3sc(N(C)[C@H]4C[C@]5(C)CC[C@](C)(C4)N5)nc3s2)cn1 [Compound 86, N-[(1R,3s,5S)-1,5-dimethyl-8-azabicyclo[3.2.1]octan-3-yl]-N-methyl-5-[5-(5-methyl-1H-pyrazol-4-yl)pyrazin-2-yl][1,3]thiazolo[5,4-d][1,3]thiazol-2-amine]	≥ 7.00
C[C@@H]1C[C@@H](N(C)c2nc3sc(-c4ncc(-c5cn[nH]c5)c5cc[nH]c45)nc3s2)CCN1 [Compound 87, N-methyl-N-[(2R,4S)-2-methylpiperidin-4-yl]-5-[4-(1H-pyrazol-4-yl)-1H-pyrrolo[2,3-c]pyridin-7-yl][1,3]thiazolo[5,4-d][1,3]thiazol-2-amine]	≥ 7.00
Cc1cn(-c2cnc(-c3nc4sc(N(C)[C@H]5C[C@]6(C)CC[C@](C)(C5)N6)nc4s3)cn2)cn1 [Compound 88, N-[(1R,3s,5S)-1,5-dimethyl-8-azabicyclo[3.2.1]octan-3-yl]-N-methyl-5-[5-(4-methyl-1H-imidazol-1-yl)pyrazin-2-yl][1,3]thiazolo[5,4-d][1,3]thiazol-2-amine]	≥ 7.00
CN(c1nc2sc(-c3cnc(-c4cnn(C)c4)cn3)nc2s1)[C@H]1C[C@]2(C)CC[C@](C)(C1)N2 [Compound 89, N-[(1R,3s,5S)-1,5-dimethyl-8-azabicyclo[3.2.1]octan-3-yl]-N-methyl-5-[5-(1-methyl-1H-pyrazol-4-yl)pyrazin-2-yl][1,3]thiazolo[5,4-d][1,3]thiazol-2-amine]	≥ 7.00
CCn1cc(-c2cnc(-c3nc4sc(N(C)[C@H]5CCN[C@H](C)C5)nc4s3)c3[nH]ccc23)cn1 [Compound 90, 5-[4-(1-ethyl-1H-pyrazol-4-yl)-1H-pyrrolo[2,3-c]pyridin-7-yl]-N-methyl-N-[(2R,4S)-2-methylpiperidin-4-yl][1,3]thiazolo[5,4-d][1,3]thiazol-2-amine]	≥ 7.00
C[C@@H]1C[C@@H](N(C)c2nc3sc(-c4ncc(-c5cnn(C)c5)c5cc[nH]c45)nc3s2)CCN1 [Compound 91, N-methyl-N-[(2R,4S)-2-methylpiperidin-4-yl]-5-[4-(1-methyl-1H-pyrazol-4-yl)-1H-pyrrolo[2,3-c]pyridin-7-yl][1,3]thiazolo[5,4-d][1,3]thiazol-2-amine]	≥ 7.00
CN(c1nc2sc(-c3cnc(-c4ccn(C)c(=O)c4)cn3)nc2s1)[C@H]1C[C@]2(C)CC[C@](C)(C1)N2 [Compound 92, 4-[5-(5-{[(1R,3s,5S)-1,5-dimethyl-8-azabicyclo[3.2.1]octan-3-yl](methyl)amino}[1,3]thiazolo[5,4-d][1,3]thiazol-2-yl)pyrazin-2-yl]-1-methylpyridin-2(1H)-one]	≥ 7.00
C[C@@H]1C[C@@H](N(C)c2nc3sc(-c4cnc(-c5cn[nH]c5)cn4)nc3s2)CCN1 [Compound 93, N-methyl-N-[(2R,4S)-2-methylpiperidin-4-yl]-5-[5-(1H-pyrazol-4-yl)pyrazin-2-yl][1,3]thiazolo[5,4-d][1,3]thiazol-2-amine]	≥ 7.00
CN(c1nc2sc(-c3cnc(-c4cnn(C)c4)cn3)nc2s1)C1CC(C)(C)NC(C)(C)C1 [Compound 94, N-methyl-5-[5-(1-methyl-1H-pyrazol-4-yl)pyrazin-2-yl]-N-(2,2,6,6-tetramethylpiperidin-4-yl)[1,3]thiazolo[5,4-d][1,3]thiazol-2-amine]	≥ 7.00
C[C@H]1C[C@@H](N(C)c2nc3sc(-c4ncc(-c5cnn(C)c5)c5cc[nH]c45)nc3s2)CCN1 [Compound 95, N-methyl-N-[(2S,4S)-2-methylpiperidin-4-yl]-5-[4-(1-methyl-1H-pyrazol-4-yl)-1H-pyrrolo[2,3-c]pyridin-7-yl][1,3]thiazolo[5,4-d][1,3]thiazol-2-amine]	≥ 7.00
CN1CCCC2(CCN2c2nc3sc(-c4ncc(-c5cn[nH]c5)c5cc[nH]c45)nc3s2)C1 (stereo not shown) [Compound 96, 7-[5-(6-methyl-1,6-diazaspiro[3.5]nonan-1-yl)[1,3]thiazolo[5,4-d][1,3]thiazol-2-yl]-4-(1H-pyrazol-4-yl)-1H-pyrrolo[2,3-c]pyridine]	≥ 7.00
C[C@H]1C[C@@H](N(C)c2nc3sc(-c4ccc(-c5cn[nH]c5)c5cc[nH]c45)nc3s2)CCN1 [Compound 97, N-methyl-N-[(2S,4S)-2-methylpiperidin-4-yl]-5-[4-(1H-pyrazol-4-yl)-1H-indol-7-yl][1,3]thiazolo[5,4-d][1,3]thiazol-2-amine]	≥ 7.00
C[C@H]1C[C@@H](N(C)c2nc3sc(-c4ncc(-c5cn[nH]c5)c5cc[nH]c45)nc3s2)CCN1 [Compound 98, N-methyl-N-[(2S,4S)-2-methylpiperidin-4-yl]-5-[4-(1H-pyrazol-4-yl)-1H-pyrrolo[2,3-c]pyridin-7-yl][1,3]thiazolo[5,4-d][1,3]thiazol-2-amine]	≥ 7.00
C[C@H]1C[C@@H](N(C)c2nc3sc(-c4cnc(-c5cn[nH]c5)cn4)nc3s2)CCN1 [Compound 99, N-methyl-N-[(2S,4S)-2-methylpiperidin-4-yl]-5-[5-(1H-pyrazol-4-yl)pyrazin-2-yl][1,3]thiazolo[5,4-d][1,3]thiazol-2-amine]	6.00 to 6.30
CN(c1nc2sc(-c3ncc(-c4cn[nH]c4)nn3)nc2s1)C1CC(C)(C)NC(C)(C)C1 [Compound 100, N-methyl-5-[6-(1H-pyrazol-4-yl)-1,2,4-triazin-3-yl]-N-(2,2,6,6-tetramethylpiperidin-4-yl)[1,3]thiazolo[5,4-d][1,3]thiazol-2-amine]	≥ 7.00
CN(c1nc2sc(-c3ncc(-c4cn[nH]c4)n4ccnc34)nc2s1)C1CCNCC1 [Compound 101, N-methyl-N-(piperidin-4-yl)-5-[5-(1H-pyrazol-4-yl)imidazo[1,2-a]pyrazin-8-yl][1,3]thiazolo[5,4-d][1,3]thiazol-2-amine]	5.52 to 6.00
CN(c1nc2sc(-c3cnc(-n4ccnc4)cn3)nc2s1)C1CC(C)(C)NC(C)(C)C1 [Compound 102, 5-[5-(1H-imidazol-1-yl)pyrazin-2-yl]-N-methyl-N-(2,2,6,6-tetramethylpiperidin-4-yl)[1,3]thiazolo[5,4-d][1,3]thiazol-2-amine]	≥ 7.00
CN(c1nc2sc(-c3cnc(-n4ccnc4)cn3)nc2s1)[C@H]1C[C@]2(C)CC[C@](C)(C1)N2 [Compound 103, N-[(1R,3s,5S)-1,5-dimethyl-8-azabicyclo[3.2.1]octan-3-yl]-5-[5-(1H-imidazol-1-yl)pyrazin-2-yl]-N-methyl[1,3]thiazolo[5,4-d][1,3]thiazol-2-amine]	≥ 7.00
CN(c1nc2sc(-c3cnc(-n4cccn4)cn3)nc2s1)[C@H]1C[C@]2(C)CC[C@](C)(C1)N2 [Compound 104, N-[(1R,3s,5S)-1,5-dimethyl-8-azabicyclo[3.2.1]octan-3-yl]-N-methyl-5-[5-(1H-pyrazol-1-yl)pyrazin-2-yl][1,3]thiazolo[5,4-d][1,3]thiazol-2-amine]	6.00 to 6.30
CN(c1nc2sc(-c3cnc(-n4cccn4)cn3)nc2s1)C1CC(C)(C)NC(C)(C)C1 [Compound 105, N-methyl-5-[5-(1H-pyrazol-1-yl)pyrazin-2-yl]-N-(2,2,6,6-tetramethylpiperidin-4-yl)[1,3]thiazolo[5,4-d][1,3]thiazol-2-amine]	6.00 to 6.30
